GI50 and TGI data for 40 molecules are collected here from PubChem BioAssay (NCI).

Where “and” joins values, the source holds several entries; their conditions need not be identical. Equal entries are not always repeated.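 48-hour exposure; five concentrations; linearly interpolated endpoints. The concentration for 50% growth inhibition is given as GI50. TGI marks complete inhibition of growth.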 *1 amine or outer side, *2 acyl side, *3 side chain or, on linkers, in order; H or OH if unused. Where a SMILES comes first, the peptide text is derived from it. Bridges are numbered along the chain shown (N, C = ends). Roman numbers before positions name the chains, in order. [ ]: non-standard residue; d: D form. Actinocin(9to1) = Cc1c2oc3c(C)ccc(C(=O)[*:1])c3nc-2c(C(=O)[*:2])c(N)c1=O; NMeV = CN[CH](C(=O)O)C(C)C; Sar = CNCC(=O)O

The test system of this experiment is MDA-MB-468 breast. Kind of experiment: inhibition of tumour cell growth, NCI panel, 48 h.
With `c1cc(CN2CCCNCCNCCCNCC2)ccc1CN1CCCNCCNCCCNCC1`, the GI50 was over 100 µM and the TGI is over 100 µM. For `C=C1C(=O)O[C@H]2[C@H]1CC/C(COC(=O)c1cn(C)c3ccccc13)=C\CC[C@@]1(C)O[C@@H]21`, the GI50 was 0.446 µM and the TGI is 1.99 µM.

In the case of `C=C(C)[C@@H]1CC[C@]2(COCCCNCCCN)CC[C@]3(C)[C@H](CC[C@@H]4[C@@]5(C)CC[C@H](OCCCN)C(C)(C)[C@@H]5CC[C@]43C)[C@@H]12`, the GI50 is 0.882 µM and the TGI came out at 1.74 µM.

Regarding `CCCCCCCCCCCC[N+](C)(C)Cc1ccccc1`, the GI50 was 0.508 µM and the TGI stood at 4.25 µM.

`Oc1[nH]c(N=C2N=c3ccccc3=N2)c2ccccc12`: the GI50 was 11.2 µM and the TGI amounted to 31.2 µM. Consider `Cc1c2oc3c(C)ccc(C(=O)OC(C)C4NC(=O)C(C(C)C)N(C)C(=O)CN(C)C(=O)C5CCCN5C(=O)C(C(C)C)NC4=O)c3nc-2c(C(=O)OC(C)C2NC(=O)C(C(C)C)N(C)C(=O)CN(C)C(=O)C3CCCN3C(=O)C(C(C)C)NC2=O)c(N)c1=O` (centres undefined) (I: cyclo([Sar][NMeV]TVP) / II: cyclo([Sar][NMeV]TVP); linker I:3-II:3 via Actinocin(9to1); configuration not given here), for which the GI50 is under 0.01 µM and the TGI was 0.0152 µM.

For `CCN1C(=O)N(CC)C2C1NN=c1s/c(=C\c3cccs3)c(=O)n12` (centres undefined), the GI50 was 0.113 µM and the TGI is over 100 µM. On the same counts, the results for `N#Cc1cnc2ccc(-c3cnc4n[nH]nc4c3)cc2c1N1CCc2cc(F)c(Cl)cc21` are 1.99 µM and 10.7 µM. Turning to `Nc1ncnc2c1c(-c1ccc(Oc3ccccc3)cc1)nn2C[C@H]1SSC[C@@H]1O`, the GI50 is 0.351 µM and the TGI stood at 1.63 µM. As for `CC/C=C\C[C@H](O)C/C=C1/C(=O)C=C[C@@H]1C/C=C\CCCC(=O)OC(C)C`, the GI50 was 1.29 µM and the TGI stood at 3.06 µM. With `CCC#CC[C@H](O)C/C=C1/C(=O)C=C[C@@H]1C/C=C\CCCC(=O)OC`, the GI50 was 1.23 µM and the TGI was found to be 3.98 µM.

`CCCCC[C@H]1CC=C2C(=O)C=C[C@@H]2CC=CCCCC(=O)O[C@@H](CCCCC)CC=C2C(=O)C=C[C@@H]2CC=CCCCC(=O)O[C@@H](CCCCC)CC=C2C(=O)C=C[C@@H]2CC=CCCCC(=O)O1`: the GI50 was 0.272 µM and the TGI came to 0.847 µM.

As to `CCCCCCCN(CCCCCCC)C(=N)c1ccnc2ccccc12`, the GI50 was 1.7 µM and the TGI was 3.37 µM. As for `Clc1ccccc1[C@@H]1C[C@@H]2Cc3cc(Br)c4ccccc4c3N1O2`, the GI50 is 1.81 µM and the TGI worked out at 5.67 µM.

As to `CC(CN(C)C)S(=O)(=O)c1ccc(-c2cnc(N)c(C(=O)Nc3ccccc3)n2)cc1` (centres undefined), the GI50 is 4.98 µM and the TGI came to 20.4 µM. On the same counts, the results for `C[C@]12CC[C@@H]3c4ccc(O)cc4CC[C@H]3[C@@H]1CC[C@@H]2NS(=O)(=O)c1cccc(Cl)c1` are 1.98 µM and 8.12 µM.

Take `CCN1C(=O)N(CC)C2SC(N/N=C/c3ccccc3F)=NC21` (centres undefined): the GI50 was 0.296 µM and the TGI was determined as 24.7 µM. Take `COc1cccc(Sc2ccc([N+](=O)[O-])c3no[n+]([O-])c23)c1`: the GI50 was 2.42 µM and the TGI amounted to 7.61 µM. As to `CN(C)C[C@H]1CCn2c(c(C3=C(c4cn(C)c5ccccc45)C(=O)NC3=O)c3ccccc32)C1`, the GI50 is 3.85 µM and the TGI is 7.86 µM. Regarding `COc1ccc(C(C#N)=C2C=CC(=NO)C=C2)cc1`, the GI50 is 0.833 µM and the TGI was determined as 4.56 µM. On the same counts, the results for `CC(=Nc1ccccc1)C1=C(O)C(Cc2cccc(F)c2)NC1=O` (centres undefined) are 0.0364 µM and 62 µM. Turning to `C=CCNc1nc(O)c(/C=C2\C=Nc3ncccc32)s1`, the GI50 is 1.92 µM and the TGI worked out at 4.13 µM.

As for `O=C1/C(=C/c2ccc(F)c(F)c2)CN(C(=O)C(Cl)Cl)C/C1=C\c1ccc(F)c(F)c1`, the GI50 is 0.158 µM and the TGI was 0.352 µM. `CN(C)c1ccc(C(=N)c2ccc(N(C)C)cc2)cc1`: the GI50 was 0.509 µM and 0.759 µM; the TGI was 3 µM and 3.52 µM. Turning to `COc1cc(-c2nn(-c3cccc(NC(=O)NCCNS(=O)(=O)c4ccc(Cl)cc4)c3)cc2-c2ccncc2)ccc1Cl`, the GI50 is 0.332 µM and the TGI was 1.67 µM. On to `C=C1C(=O)O[C@H]2[C@H]1CC/C(Cn1cc(Cc3c[nH]c4ccccc34)nn1)=C\CC[C@@]1(C)O[C@@H]21`, for which the GI50 is 1.45 µM and the TGI was 3.88 µM. `O=C(Nc1ccc2ncnc(Nc3ccc(Oc4cccc(F)c4)c(Cl)c3)c2c1)c1ccc(CN2CCOCC2)cc1`: the GI50 was 1.5 µM and the TGI was determined as 6.57 µM. Turning to `COc1cccc(-n2ncc3c(N/N=C/c4ccc(C)cc4)ncnc32)c1`, the GI50 is over 25 µM and the TGI was over 25 µM. In the case of `c1ccc2cc(Cn3cc[n+](Cc4ccc5ccccc5c4)c3)ccc2c1`, the GI50 is 0.25 µM and the TGI worked out at 0.849 µM. In the case of `CC(=O)O[C@@]12CO[C@@H]1C[C@H](O)[C@@]1(C)C(=O)[C@H](O)C3=C(C)[C@@H](OC(=O)[C@H](O)[C@@H](NC(=O)OC(C)(C)C)c4ccccc4)C[C@@](O)([C@@H](OC(=O)c4ccccc4)C12)C3(C)C` (some centres undefined), the GI50 is under 0.005 µM. Consider `Cc1cc(C(=O)Nc2cc(Oc3ccc4nc(NC(=O)C5CC5)cn4n3)ccc2C)n(C)n1`, for which the GI50 is 5.51 µM and the TGI was over 10 µM. In the case of `COc1ccc(-c2nsc3c2NC(=O)CC3c2ccc3c(c2)OCCO3)cc1` (centres undefined), the GI50 was 0.328 µM and the TGI is over 100 µM.

On to `CN(C)C(=S)/N=c1\ssc(=S)n1Cc1cccs1`, for which the GI50 was 4.07 µM and the TGI is over 100 µM. For `COC12C=C/C(=C(/C(=O)OCCSc3ccnn3C)C(=O)CCCCCCCCC3(OC)C=C/C(=C(/C(=O)OCCSc4ccnn4C)C(=O)CCCCCCCC1)O3)O2`, the GI50 was 0.951 µM and the TGI stood at 4.13 µM. Consider `COc1cc(OC)c(/C=C/C(=O)c2ccc(Nc3ncnc4ccccc34)cc2)c(OC)c1`, for which the GI50 is 0.306 µM and the TGI was determined as 1.55 µM. In the case of `O=C1NCN(c2ccccc2)C12CCN(CCCC(c1ccc(F)cc1)c1ccc(F)cc1)CC2`, the GI50 was 1.77 µM and the TGI worked out at 4.37 µM. For `CC(C)(C)Nc1nc2c(OCCc3ccccc3)cccn2c1-c1ccc(Cl)cc1`, the GI50 was 16.9 µM and the TGI turned out to be 45.3 µM.

For the molecule `CCN(CC)CCCOc1ccc2ncnc(Nc3ccc(Oc4cccc(C(F)(F)F)c4)c(Cl)c3)c2c1`, the GI50 was 0.879 µM and the TGI came out at 2.33 µM. On the same counts, the results for `O=C1Nc2ccccc2/C1=C\c1cccc(/C=C2/C(=O)Nc3ccccc32)n1` are 0.336 µM and 1.38 µM. Regarding `O=P(O)(O)OCC1OC(n2cnc3c(NCc4ccco4)ncnc32)C(O)C1O` (centres undefined), the GI50 is 2.27 µM and the TGI turned out to be 7.66 µM.
